Tests used:
EHMT1 = target: T1, EHMT1 (Homo sapiens, UniProt Q9H9B1); assay: EHMT1 PEP (EHMT1 peptide enzyme assay); type: biochemical; conditions: peptide substrate enzyme assay
T1 sequence (Q9H9B1 1-1298): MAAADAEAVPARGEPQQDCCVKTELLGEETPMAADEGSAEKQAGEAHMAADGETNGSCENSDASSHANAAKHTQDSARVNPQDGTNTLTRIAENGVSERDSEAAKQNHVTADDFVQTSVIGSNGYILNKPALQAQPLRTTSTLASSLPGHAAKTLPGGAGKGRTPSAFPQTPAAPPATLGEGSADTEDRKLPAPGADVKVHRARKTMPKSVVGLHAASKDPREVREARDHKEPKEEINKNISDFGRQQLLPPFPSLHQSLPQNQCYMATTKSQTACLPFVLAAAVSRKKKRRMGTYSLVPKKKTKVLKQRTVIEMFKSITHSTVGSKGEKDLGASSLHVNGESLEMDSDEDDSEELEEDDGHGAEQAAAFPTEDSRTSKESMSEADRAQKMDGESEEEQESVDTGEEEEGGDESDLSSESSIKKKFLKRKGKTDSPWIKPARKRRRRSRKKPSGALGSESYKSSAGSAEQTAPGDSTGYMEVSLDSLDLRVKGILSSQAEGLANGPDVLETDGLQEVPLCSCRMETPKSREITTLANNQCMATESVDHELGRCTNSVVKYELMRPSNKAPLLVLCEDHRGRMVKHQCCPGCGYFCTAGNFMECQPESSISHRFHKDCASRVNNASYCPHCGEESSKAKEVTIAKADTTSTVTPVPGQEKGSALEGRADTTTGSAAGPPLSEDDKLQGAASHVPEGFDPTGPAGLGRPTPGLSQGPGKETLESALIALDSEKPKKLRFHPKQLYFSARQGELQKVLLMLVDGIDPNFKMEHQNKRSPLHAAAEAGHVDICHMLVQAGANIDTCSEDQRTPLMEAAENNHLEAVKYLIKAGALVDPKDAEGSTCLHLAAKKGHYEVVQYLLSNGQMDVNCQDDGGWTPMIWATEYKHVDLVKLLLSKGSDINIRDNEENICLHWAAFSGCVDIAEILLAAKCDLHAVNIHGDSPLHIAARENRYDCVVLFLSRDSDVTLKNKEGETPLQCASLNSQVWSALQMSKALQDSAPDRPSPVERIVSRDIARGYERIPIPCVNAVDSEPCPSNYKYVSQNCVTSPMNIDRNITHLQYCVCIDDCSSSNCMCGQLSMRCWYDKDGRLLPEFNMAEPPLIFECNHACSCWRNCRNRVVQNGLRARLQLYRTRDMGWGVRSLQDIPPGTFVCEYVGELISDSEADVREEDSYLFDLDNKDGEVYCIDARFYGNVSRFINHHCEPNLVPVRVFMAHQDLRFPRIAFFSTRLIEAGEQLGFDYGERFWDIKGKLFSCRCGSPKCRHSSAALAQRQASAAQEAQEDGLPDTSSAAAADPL

[1] = target: T2, recombinant purified human EHMT2 913-1193 (Homo sapiens, UniProt Q96KQ7); assay: EHMT2 enzyme assay on histone peptide substrate (3H-SAM Flashplate); type: biochemical; conditions: read-out: EHMT2 PEP (IC50 μM)
T2 construct: Recombinant purified human EHMT2 913-1193 (55 μM) synthesized by Viva was used for all experiments; purchased Viva
T2 sequence (Q96KQ7 913-1193): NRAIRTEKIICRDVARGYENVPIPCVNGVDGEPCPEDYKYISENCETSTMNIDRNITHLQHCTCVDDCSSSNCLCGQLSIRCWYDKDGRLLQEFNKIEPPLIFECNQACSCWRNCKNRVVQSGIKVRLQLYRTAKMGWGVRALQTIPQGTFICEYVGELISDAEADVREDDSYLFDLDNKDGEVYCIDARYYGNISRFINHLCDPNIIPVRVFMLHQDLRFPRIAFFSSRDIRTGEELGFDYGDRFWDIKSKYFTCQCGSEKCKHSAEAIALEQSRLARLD
In short: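 Compounds (10-point 3-fold series, top 50 μM final, 2% DMSO) preincubated 30 min with 0.031 nM EHMT2 in 20 mM Bicine pH 7.5, 1 mM TCEP; reaction started with 3H-SAM and biotinylated H3 1-15 peptide, both at Km, run 60 min at room temperature. Flashplate capture; IC50 from four-parameter fit, triplicates.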

Row | IC50 (EHMT1) | IC50 [1] | Structure (SMILES)
1 | 1 to 10 µM | > 10 µM | CNc1cc(C)nc(Nc2ccc(OC)c(-c3cc4[nH]ccc4cn3)c2OC)n1 [Compound 220]
2 | < 0.1 µM | 0.1 to 1 µM | CNc1cc(C)nc(Nc2ccc(OC)c(-c3cc4[nH]ccc4cn3)c2F)n1 [Compound 221]
3 | < 0.1 µM | 0.1 to 1 µM | CNCc1cnn(-c2c(OC)ccc(Nc3nc(C)cc(NC)n3)c2OC)c1 [Compound 222]
4 | < 0.1 µM | < 0.1 µM | CNc1cc(C)nc(Nc2ccc(OC)c(-c3cnc4cc[nH]c4c3)c2)n1 [Compound 223]
5 | < 0.1 µM | 1 to 10 µM | CNc1cc(-c2cc(Nc3nc(C)cc(NC)n3)ccc2OC)ncn1 [Compound 225]
6 | < 0.1 µM | < 0.1 µM | CNc1cc(C)nc(Nc2ccc(OC)c(-c3cc4[nH]ccc4nc3C)c2)n1 [Compound 228]
7 | < 0.1 µM | 0.1 to 1 µM | CNc1cc(C)nc(Nc2ccc(OC)c(-c3cc4[nH]cc(F)c4cn3)c2)n1 [Compound 229]
8 | < 0.1 µM | 0.1 to 1 µM | CNc1cc(-c2cc(Nc3nc(C)cc(NC)n3)ccc2OC)nc(C)n1 [Compound 230]
9 | 1 to 10 µM | 1 to 10 µM | COc1cc(NC2CCNCC2)ccc1-c1cc2[nH]ccc2cn1 [Compound 231]
10 | 1 to 10 µM | > 10 µM | CNc1cc(C)nc(Nc2ccc(OC)c(-c3cc(C4CC4)ncn3)c2)n1 [Compound 232]
11 | 0.1 to 1 µM | 1 to 10 µM | CNc1cc(C)nc(Nc2ccc(OC)c(-c3cc(C4CC4)cnn3)c2)n1 [Compound 233]
12 | 0.1 to 1 µM | > 10 µM | CNc1cc(C)nc(Nc2ccc(OC)c(-c3cn4ccnc4cn3)c2)n1 [Compound 234]
13 | > 10 µM | > 10 µM | CNc1cc(C)nc(Nc2ccc(OC)c(-c3cc4cnoc4cn3)c2)n1 [Compound 235]
14 | > 10 µM | > 10 µM | COc1cc(NC2CCNCC2)ccc1-c1cc(C2CC2)cnn1 [Compound 236]
15 | < 0.1 µM | < 0.1 µM | CNc1cc(C)nc(Nc2ccc(OC)c(-c3cc4[nH]ccc4c(C)n3)c2)n1 [Compound 237]
16 | < 0.1 µM | < 0.1 µM | CNC1=Nc2cc(-c3[nH]c4cnccc4c3C)c(OC)cc2C12CCC2 [Compound 238, 5′-methoxy-N-methyl-6′-(3-methyl-1H-pyrrolo[2,3-c]pyridin-2-yl)spiro[cyclobutane-1,3′-indol]-2′-amine]
17 | > 10 µM | > 10 µM | CNc1cc(C)nc(Nc2ccc(C)c(C(=O)Nc3cccnc3)c2)n1 [Compound 239]
18 | 1 to 10 µM | > 10 µM | CNc1cc(C)nc(Nc2ccc(Cl)c(C(=O)Nc3cccnc3)c2)n1 [Compound 240]
19 | < 0.1 µM | < 0.1 µM | CNc1cc(C)nc(Nc2ccc(C)c(-c3cc4ccncc4[nH]3)c2)n1 [Compound 241]
20 | > 10 µM | > 10 µM | CNc1cc(C)nc(Nc2cccc(C(=O)Nc3cccnc3)c2)n1 [Compound 242]

— US20220235065A1 (Epizyme, Inc., priority 2016, published 2022)
